Data as given in PubChem BioAssay (NCI).
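Five compound concentrations were applied to cells in 96-well plates for 48 hours; endpoints were derived by simple linear interpolation of the resulting dose-response curve. Here, GI50 denotes the concentration required for 50% inhibition of growth. TGI: total growth inhibition.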

Tests used:
Experiment in all cases: growth of human tumour cells (NCI), 48 h
T-47D breast = system: T-47D breast
RXF 393 renal = system: RXF 393 renal
HCC-2998 colon = system: HCC-2998 colon
HS 578T breast = system: HS 578T breast
SW-620 colon = system: SW-620 colon
M14 melanoma = system: M14 melanoma
HOP-62 NSCLC = system: HOP-62 NSCLC
DU-145 prostate = system: DU-145 prostate
EKVX NSCLC = system: EKVX NSCLC
RPMI-8226 leukemia = system: RPMI-8226 leukemia
NCI-H522 lung = system: NCI-H522 lung
SK-MEL-28 melanoma = system: SK-MEL-28 melanoma
MDA-MB-231 breast = system: MDA-MB-231 breast
BT-549 breast = system: BT-549 breast
K-562 leukemia = system: K-562 leukemia
SK-MEL-5 melanoma = system: SK-MEL-5 melanoma
IGROV1 ovarian = system: IGROV1 ovarian
TK-10 renal = system: TK-10 renal
HCT-116 colon = system: HCT-116 colon
LOX IMVI melanoma = system: LOX IMVI melanoma
NCI-H23 lung = system: NCI-H23 lung
A549 NSCLC = system: A549 NSCLC
NCI-H460 lung = system: NCI-H460 lung
MALME-3M melanoma = system: MALME-3M melanoma
HOP-92 NSCLC = system: HOP-92 NSCLC
SK-MEL-2 melanoma = system: SK-MEL-2 melanoma
MOLT-4 leukemia = system: MOLT-4 leukemia
KM12 colon = system: KM12 colon
OVCAR-5 ovarian = system: OVCAR-5 ovarian
NCI/ADR-RES ovarian = system: NCI/ADR-RES ovarian
CCRF-CEM leukemia = system: CCRF-CEM leukemia
SNB-19 CNS = system: SNB-19 CNS
MDA-MB-435 = system: MDA-MB-435
HCT-15 colon = system: HCT-15 colon
UACC-62 melanoma = system: UACC-62 melanoma
NCI-H226 lung = system: NCI-H226 lung
786-0 renal = system: 786-0 renal
OVCAR-8 ovarian = system: OVCAR-8 ovarian
SNB-75 CNS = system: SNB-75 CNS
SF-268 CNS = system: SF-268 CNS
U251 CNS = system: U251 CNS
SK-OV-3 ovarian = system: SK-OV-3 ovarian
SN12C renal = system: SN12C renal
PC-3 prostate = system: PC-3 prostate
OVCAR-4 ovarian = system: OVCAR-4 ovarian
COLO 205 colon = system: COLO 205 colon
HT29 colon = system: HT29 colon
SR leukemia = system: SR leukemia
ACHN renal = system: ACHN renal
SF-295 CNS = system: SF-295 CNS
UO-31 renal = system: UO-31 renal
HL-60(TB) leukemia = system: HL-60(TB) leukemia

ClC(Cl)c1nc(-c2ccco2)n2nc(-c3ccccc3)cc2n1
GI50 (T-47D breast): 1.47 µM
TGI (T-47D breast): > 100 µM
GI50 (RXF 393 renal): 0.528 µM
TGI (RXF 393 renal): 76.4 µM
GI50 (HCC-2998 colon): 0.553 µM
TGI (HCC-2998 colon): 1.85 µM
GI50 (HS 578T breast): 2.17 µM
TGI (HS 578T breast): 7.46 µM
GI50 (SW-620 colon): 0.445 µM
TGI (SW-620 colon): > 82.5 µM
GI50 (M14 melanoma): > 100 µM
TGI (M14 melanoma): > 100 µM
GI50 (HOP-62 NSCLC): 0.679 µM
TGI (HOP-62 NSCLC): 4.5 µM
GI50 (DU-145 prostate): 0.355 µM
TGI (DU-145 prostate): 1.41 µM
GI50 (EKVX NSCLC): 1.56 µM
TGI (EKVX NSCLC): 5.18 µM
GI50 (RPMI-8226 leukemia): 0.54 µM
TGI (RPMI-8226 leukemia): > 22.6 µM
GI50 (NCI-H522 lung): > 100 µM
TGI (NCI-H522 lung): > 100 µM
GI50 (SK-MEL-28 melanoma): 3.76 µM
TGI (SK-MEL-28 melanoma): > 100 µM
GI50 (MDA-MB-231 breast): 0.791 µM
TGI (MDA-MB-231 breast): 5.02 µM
GI50 (BT-549 breast): > 100 µM
TGI (BT-549 breast): > 100 µM
GI50 (K-562 leukemia): > 39.1 µM
TGI (K-562 leukemia): > 100 µM
GI50 (SK-MEL-5 melanoma): > 100 µM
TGI (SK-MEL-5 melanoma): > 100 µM
GI50 (IGROV1 ovarian): > 63.1 µM
TGI (IGROV1 ovarian): > 100 µM
GI50 (TK-10 renal): 4.96 µM
TGI (TK-10 renal): > 100 µM
GI50 (HCT-116 colon): 0.639 µM
TGI (HCT-116 colon): > 39.3 µM
GI50 (LOX IMVI melanoma): > 100 µM
TGI (LOX IMVI melanoma): > 100 µM
GI50 (NCI-H23 lung): 9.81 µM
TGI (NCI-H23 lung): > 100 µM
GI50 (A549 NSCLC): 1.56 µM
TGI (A549 NSCLC): 6.16 µM
GI50 (NCI-H460 lung): 0.265 µM
TGI (NCI-H460 lung): 0.844 µM
GI50 (MALME-3M melanoma): > 100 µM
TGI (MALME-3M melanoma): > 100 µM
GI50 (HOP-92 NSCLC): 0.535 µM
TGI (HOP-92 NSCLC): 3.64 µM
GI50 (SK-MEL-2 melanoma): > 100 µM
TGI (SK-MEL-2 melanoma): > 100 µM
GI50 (MOLT-4 leukemia): > 100 µM
TGI (MOLT-4 leukemia): > 100 µM
GI50 (KM12 colon): 0.352 µM
TGI (KM12 colon): 1.71 µM
GI50 (OVCAR-5 ovarian): 2.02 µM
TGI (OVCAR-5 ovarian): > 100 µM
GI50 (NCI/ADR-RES ovarian): 0.801 µM
TGI (NCI/ADR-RES ovarian): > 100 µM
GI50 (CCRF-CEM leukemia): > 100 µM
TGI (CCRF-CEM leukemia): > 100 µM
GI50 (SNB-19 CNS): 0.998 µM
TGI (SNB-19 CNS): > 100 µM
GI50 (MDA-MB-435): 2.64 µM
TGI (MDA-MB-435): > 100 µM
GI50 (HCT-15 colon): 0.617 µM
TGI (HCT-15 colon): > 100 µM
GI50 (UACC-62 melanoma): > 100 µM
TGI (UACC-62 melanoma): > 100 µM
GI50 (NCI-H226 lung): > 100 µM
TGI (NCI-H226 lung): > 100 µM
GI50 (786-0 renal): > 23.5 µM
TGI (786-0 renal): > 100 µM
GI50 (OVCAR-8 ovarian): 1.62 µM
TGI (OVCAR-8 ovarian): > 100 µM
GI50 (SNB-75 CNS): 0.219 µM
TGI (SNB-75 CNS): 3.07 µM
GI50 (SF-268 CNS): 1.98 µM
TGI (SF-268 CNS): > 100 µM
GI50 (U251 CNS): 0.343 µM
TGI (U251 CNS): 2.33 µM
GI50 (SK-OV-3 ovarian): 6.76 µM
TGI (SK-OV-3 ovarian): > 100 µM
GI50 (SN12C renal): > 100 µM
TGI (SN12C renal): > 100 µM
GI50 (PC-3 prostate): 1.67 µM
TGI (PC-3 prostate): 16.2 µM
GI50 (OVCAR-4 ovarian): 5.45 µM
TGI (OVCAR-4 ovarian): > 100 µM
GI50 (COLO 205 colon): 1.15 µM
TGI (COLO 205 colon): 3.58 µM
GI50 (HT29 colon): 0.338 µM
TGI (HT29 colon): 2.16 µM
GI50 (SR leukemia): > 60.2 µM
TGI (SR leukemia): > 100 µM
GI50 (ACHN renal): 0.365 µM
TGI (ACHN renal): 2.03 µM
GI50 (SF-295 CNS): 1.66 µM
TGI (SF-295 CNS): 6.13 µM
GI50 (UO-31 renal): 1.61 µM
TGI (UO-31 renal): > 23.9 µM
GI50 (HL-60(TB) leukemia): 0.304 µM
TGI (HL-60(TB) leukemia): 1.69 µM
